Measured values as given in the supplement of paper PMC10307832.

Legend:
Assay in all cases: relative viability (nuclei count vs DMSO), 5 days (fraction); higher = more cells survive
[1] = compound: CCOC1=CC=CC=C1N=NC2=C(NN(C2=O)C3=NC(=CS3)C4=CC=CC=C4)C [BAM7] + O=C(c1cc(Cc2n[nH]c(=O)c3ccccc23)ccc1F)N1CCN(C(=O)C2CC2)CC1 [Olaparib] (partner 8 µM)
In short: (§1)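 Lung cancer cell lines were seeded in 1536-well plates and dosed by pin tool the next day, with either a single drug or a fixed anchor-drug dose combined with five library-drug doses (not always all listed) spaced in √10 steps. Five days later, one step fixed the cells and stained their nuclei (final 0.05% Triton X-100, 1% formaldehyde, 1 ug/ml Hoechst), and nuclei were counted on 4× images. Relative viability is the nuclei count in treated wells divided by the count in vehicle wells, and each value is the median of duplicate plates.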

[2] = compound: CCOC1=CC=CC=C1N=NC2=C(NN(C2=O)C3=NC(=CS3)C4=CC=CC=C4)C [BAM7] + Nc1nc2[nH]cc(CCc3ccc(C(=O)N[C@@H](CCC(=O)O)C(=O)O)cc3)c2c(=O)[nH]1 [Pemetrexed] (partner 0.2 µM)
In short: as §1

[3] = compound: CCn1c(-c2nonc2N)nc2c(C#CC(C)(C)O)ncc(OC[C@H]3CCCNC3)c21 + O=C(CCCCCCC(=O)Nc1ccccc1)NO [Vorinostat] (partner 1 µM)
In short: as §1

[4] = compound: CCn1c(-c2nonc2N)nc2c(C#CC(C)(C)O)ncc(OC[C@H]3CCCNC3)c21 + CS(=O)(=O)N1CCN(Cc2cc3nc(-c4cccc5[nH]ncc45)nc(N4CCOCC4)c3s2)CC1 [Pictilisib] (partner 1 µM)
In short: as §1

Cell Line | relative viability ([1]; first compound 0.5 µM) | relative viability ([1]; first compound 5 µM) | relative viability ([1]; first compound 15.81 µM) | relative viability ([1]; first compound 50 µM) | relative viability ([2]; first compound 0.5 µM) | relative viability ([2]; first compound 5 µM) | relative viability ([2]; first compound 15.81 µM) | relative viability ([2]; first compound 50 µM) | relative viability ([3]; first compound 0.01 µM) | relative viability ([3]; first compound 0.03162 µM) | relative viability ([3]; first compound 0.1 µM) | relative viability ([3]; first compound 0.3162 µM) | relative viability ([3]; first compound 1 µM) | relative viability ([4]; first compound 0.01 µM) | relative viability ([4]; first compound 0.03162 µM) | relative viability ([4]; first compound 0.1 µM) | relative viability ([4]; first compound 0.3162 µM) | relative viability ([4]; first compound 1 µM)
LXF-289 | 1.17 | 1.05 | 1.02 | 1.09 | 1.01 | 0.994 | 0.918 | 0.865 | 0.822 | 0.791 | 0.737 | 0.737 | 0.808 | 0.765 | 0.798 | 0.715 | 0.723 | 0.793
NCI-H23 | 0.374 | 0.271 | 0.258 | 0.291 | 0.832 | 0.851 | 0.622 | 0.709 | 0.559 | 0.591 | 0.626 | 0.558 | 0.531 | 0.421 | 0.375 | 0.373 | 0.445 | 0.417
NCI-H322M | 0.762 | 0.714 | 0.654 | 0.641 | 0.622 | 0.64 | 0.645 | 0.582 | 0.75 | 0.724 | 0.754 | 0.702 | 0.869 | 0.448 | 0.483 | 0.341 | 0.476 | 0.413
NCI-H522 | 0.725 | 0.585 | 0.61 | 0.643 | 1.13 | 1.09 | 1.25 | 0.998 | 0.944 | 0.911 | 0.853 | 0.847 | 0.938 |  |  |  |  | 
NCI-H727 | 0.707 | 0.58 | 0.522 | 0.573 |  |  |  |  | 1.28 | 1.12 | 1.19 | 1.09 | 1.26 | 0.441 | 0.355 | 0.275 | 0.43 | 0.315
NCI-H1299 | 0.961 | 1.02 | 0.981 | 0.923 |  |  |  |  |  |  |  |  |  | 0.817 | 0.954 | 0.773 | 0.76 | 0.753
NCI-H1563 |  |  |  |  | 0.778 | 0.853 | 0.813 | 0.633 |  |  |  |  |  | 0.689 | 0.618 | 0.686 | 0.615 | 0.633
NCI-H1648 | 0.772 | 0.799 | 0.322 | 0.558 | 0.874 | 0.88 | 0.677 | 1.03 | 0.591 | 0.418 | 0.365 | 0.367 | 0.315 |  |  |  |  | 
NCI-H1703 | 0.497 | 0.454 | 0.357 | 0.62 |  |  |  |  |  |  |  |  |  | 0.228 | 0.254 | 0.226 | 0.208 | 0.224
NCI-H1792 | 0.42 | 0.374 | 0.391 | 0.425 | 0.943 | 1.13 | 0.707 | 0.816 |  |  |  |  |  | 0.322 | 0.276 | 0.252 | 0.233 | 0.249
NCI-H2342 | 0.49 | 0.46 | 0.347 | 0.341 | 0.677 | 0.712 | 0.734 | 0.72 | 0.713 | 0.647 | 0.579 | 0.724 | 0.782 |  |  |  |  | 
SW 900 |  | 0.847 |  | 0.786 |  | 0.44 |  | 0.505 | 0.524 | 0.503 | 0.386 | 0.312 | 0.569 |  |  |  |  | 
